Test results from PMC9709406 (Frontiers in Pharmacology, 2022).
Where “and” joins values, the source holds several entries; their conditions need not be identical. Equal entries are not always repeated. Where two headings read alike, the source gives them in different places.

How the values were obtained:
[1] = tested on: KYSE450 cell-derived xenograft; experiment: In vivo cell-derived xenograft (CDX) mouse model; parameters: species or system nu/nu nude mice
Experimental: Mice were housed under specific pathogen-free conditions. All animal experiments were approved by the Bioethics Committee of Zhengzhou University and followed the guidelines set by the Institutional Animal Care and Use Committee (CUHCI2019002, CUHCI2021001, and CUHCI2021005). To generate the cell-derived xenograft (CDX) mouse model, nu/nu nude mice (Vital River Labs., Beijing, China) were subcutaneously injected with 5 × 10^6 cells (KYSE450). […] Tumor volume was calculated as follows: length × width × height × 0.5. Tumor size and mice weight were measured every 2–3 days. Compounds were administered for 15 days. The tumors were extracted for weighting, immunohistochemistry and immunofluorescence studies.
Frozen sections were washed three times with PBS and incubated overnight at 4°C with Ki-67 antibody. The next day, sections were washed three times and incubated with secondary antibody in PBS. After several washes, slides were counterstained with DAPI (Solarbio). The sections were mounted on microscope and imaged using fluorescent microscopy (Nikon, Tokyo, Japan). Image-Pro Plus 6.0 was used to analyze the fluorescence intensity.
Histological sections were dewaxed, antigens were repaired and sealed with serum in sequence. Next, histological sections were incubated overnight with diluted primary antibodies (1 : 500 dilution), and the control specimens were treated with PBS. The sections were washed 3 times with PBS. Secondary antibody was added and the system was then placed at 37 °C for half an hour. The systems were washed 3 times with PBS. Color developing agent was added. After washing with water, the system was soaked in hematoxylin for 0.5 min for dyeing. The re-dyed slides were washed with water, and then dehydrated. Neutral gums were dropped on the side of the tissue. The slices were then covered with cover glass, sealed and placed in a ventilator for drying. Immunohistochemical staining analysis was then carried out with Image-Pro Plus 6.0.

KYSE70 cells = experiment: MTT assay, KYSE70; assay type: cell-based, human
Procedure, shortened: (§1)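 Cells in RPMI-1640 with 10% FBS (taxol-resistant lines kept in 100 nm/L paclitaxel) were seeded at 2,200–2,500 cells/well and dosed next day with compound at 0–50 μM, 0.1% DMSO as control. After 48 h, MTT was added for 1–4 h and absorbance read at 490 nm.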

[2] = biological target: T1, EGFR wild protein (H672-A1210) (Homo sapiens, UniProt P00533); experiment: EGFR protein affinity determined with SPR; assay type: binding; conditions: immobilized wild-type EGFR
T1 construct: purchased Active MOTIF 31165
T1 sequence (P00533 672-1210): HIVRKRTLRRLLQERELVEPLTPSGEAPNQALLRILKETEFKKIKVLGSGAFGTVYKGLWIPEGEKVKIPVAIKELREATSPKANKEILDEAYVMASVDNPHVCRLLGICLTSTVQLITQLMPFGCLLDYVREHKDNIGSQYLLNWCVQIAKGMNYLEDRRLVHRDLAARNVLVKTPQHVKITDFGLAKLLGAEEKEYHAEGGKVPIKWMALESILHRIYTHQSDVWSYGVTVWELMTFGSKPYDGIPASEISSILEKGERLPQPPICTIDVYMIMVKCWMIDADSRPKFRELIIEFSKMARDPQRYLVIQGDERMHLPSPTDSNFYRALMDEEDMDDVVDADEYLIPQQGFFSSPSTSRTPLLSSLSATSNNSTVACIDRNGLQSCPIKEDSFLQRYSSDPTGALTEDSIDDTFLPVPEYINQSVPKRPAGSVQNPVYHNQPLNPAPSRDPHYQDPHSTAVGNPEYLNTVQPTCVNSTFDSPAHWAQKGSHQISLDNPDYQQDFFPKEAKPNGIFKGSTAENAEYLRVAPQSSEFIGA
Experimental: Firstly, EGFR protein (protein concentration : 0.468 μg/μL, Active MOTIF, cat: 31165, lot: 28215004) was covalently immobilized onto a CM5 sensor chip at densities of 2000 response units. […] During the drug-protein interaction, the change of the refractive index was measured in real-time which would allow the plotting of the results of interaction as response units versus time. The interaction results were analyzed under a BIA evaluation 3.0 software.

KYSE450TR cells = experiment: MTT assay, taxol-resistant KYSE450TR; assay type: cell-based, human; conditions: for blank-corrected absorbance 490 nm relative to control (fraction) / inhibition (1 minus fraction of control): 450TR; for IC50: Homo sapiens, MTT
From the text: (§2) The human cancer cells (H1650, H1975, KYSE70, KYSE410 and KYSE450) were purchased from the Type Culture Collection of the Chinese Academy of Sciences (Shanghai, China). The human immortalized normal esophageal epithelial cell line SHEE was donated by Dr. Enmin Li from the Laboratory of Tumor Pathology (Shantou University Medical College, Shantou, Guangdong, China). Drug-resistant cells (H1650TR, H1975OR, KYSE70TR, KYSE410TR and KYSE450TR) were induced by China-US (Henan) Hormel Cancer Institute. The cellswere cultured in RPMI-1640 complete growth medium containing 100 U/mL penicillin-streptomycin and 10% FBS. Based on the above medium formula, 100 nm/L paclitaxel was added in taxol-resistant cells, 100 nm/L gefitinib was added in gefitinib-resistant cells. The cells were incubated at 37 °C in an atmosphere containing 5% of CO2. The compounds were dissolved in DMSO to make a 50 mM stock solution and were diluted to the concentration of working solutions with complete growth medium before administration.
(§3) Cells were seeded in 96-well plates with 2,200–2,500 cells/well in100 μL. One day after seeding, test compounds with the concentration between 0 and 50 μM were added with 0.1% DMSO as control. Five multiple wells for each concentration. […] The absorbance at 490 nm was measured using a microplate reader (Thermo).

KYSE410 cells = experiment: MTT assay, KYSE410; assay type: cell-based, human; conditions: for IC50: Homo sapiens, KYSE-410
Procedure, shortened: as §1

KYSE450 cells = experiment: Cell cycle analysis by flow cytometry, KYSE450; assay type: cell-based, human; conditions: KYSE450, 24 h; icotinib at 2 μM, 3l at 8 μM
Experimental: KYSE450/KYSE450TR cells were plated in 6-well plates with a density of 1×10^5 cells/well and cultured overnight. […] Trypsinization treatment and the cells were collected by centrifugation. The cell pellet was re-suspended in 70% ethanol at −20°C for at least 3 h. The cells were washed with PBS and were re-suspended in 250 μL of 0.6% tricine with Renease A for 1 h, then stained in PI (final concentration 1.8 μg/ml, Biolegend cat: 640945) for 15 min in dark. Cells were retransferred to the BD FACSCalibur™ Flow Cytometer. All analyses were performed with FlowJo software v105.3.6.

KYSE410TR cells = experiment: MTT assay, taxol-resistant KYSE410TR; assay type: cell-based, human; conditions: for blank-corrected absorbance 490 nm relative to control (fraction) / inhibition (1 minus fraction of control): 410TR
From the text: as §2, §3

[3] = nude mice, 50 mg/kg i.p. every day, 15 days, vs control group and icotinib group

FC(F)(F)c1ccc(-n2cc(-c3cccc(Nc4ncnc5cc6c(cc45)OCCOCCOCCO6)c3)nn2)cc1 [compound 3l]
expression of proliferation marker Ki-67 in tumor ([1]; 50 mg/kg i.p., immunofluorescence): decreased significantly | expression of P-ERK (Tyr202/204) in tumor ([1]; 50 mg/kg i.p., immunohistochemistry): decreased significantly | ESCC tumor volume [1, 3]: markedly reduced | average tumor weight [1, 3]: markedly reduced | IC50 (KYSE70 cells; Homo sapiens, KYSE-70, MTT, 48 h, KYSE70, n = 5): 4.25 ± 0.21 µM | blank-corrected absorbance 490 nm relative to control (fraction) (KYSE70 cells; KYSE70, concentration 2.25): 0.9298 | inhibition (1 minus fraction of control) (KYSE70 cells; KYSE70, concentration 2.25): 0.07024 | blank-corrected absorbance 490 nm relative to control (fraction) (KYSE70 cells; KYSE70, concentration 4.5): 0.4365 | inhibition (1 minus fraction of control) (KYSE70 cells; KYSE70, concentration 4.5): 0.5635 | blank-corrected absorbance 490 nm relative to control (fraction) (KYSE70 cells; KYSE70, concentration 9): 0.2659 | inhibition (1 minus fraction of control) (KYSE70 cells; KYSE70, concentration 9): 0.7341 | Rmax(RU) [2]: 25.21 RU | Kd ([2]; 25°C): 8.23 µM and 8.24 µM | blank-corrected absorbance 490 nm relative to control (fraction) (KYSE450TR cells; concentration 4): 0.04737 | inhibition (1 minus fraction of control) (KYSE450TR cells; concentration 4): 0.9526 | blank-corrected absorbance 490 nm relative to control (fraction) (KYSE450TR cells; concentration 8): 0.04791 | inhibition (1 minus fraction of control) (KYSE450TR cells; concentration 8): 0.9521 | blank-corrected absorbance 490 nm relative to control (fraction) (KYSE450TR cells; concentration 16): 0.1075 | inhibition (1 minus fraction of control) (KYSE450TR cells; concentration 16): 0.8925 | IC50 (KYSE450TR cells; 450t (KYSE450TR), 490 nm, read-out: IC50): 2.1 µM | IC50 (KYSE450TR cells; 48 h, taxol-resistant KYSE450TR, value in parentheses, read-out: IC50 48 h KYSE450TR (data in parentheses) (converted)): 8.59 µM | IC50 (KYSE410 cells; KYSE410, MTT, 490 nm, read-out: IC50): 7 µM | IC50 (KYSE410 cells; MTT, 48 h, KYSE410, n = 5, read-out: IC50 48 h KYSE410): 5.94 ± 0.41 µM | blank-corrected absorbance 490 nm relative to control (fraction) (KYSE410 cells; KYSE410, concentration 3.5): 0.6286 | inhibition (1 minus fraction of control) (KYSE410 cells; KYSE410, concentration 3.5): 0.3714 | blank-corrected absorbance 490 nm relative to control (fraction) (KYSE410 cells; KYSE410, concentration 7): 0.487 | inhibition (1 minus fraction of control) (KYSE410 cells; KYSE410, concentration 7): 0.513 | blank-corrected absorbance 490 nm relative to control (fraction) (KYSE410 cells; KYSE410, concentration 14): 0.3214 | inhibition (1 minus fraction of control) (KYSE410 cells; KYSE410, concentration 14): 0.6786 | cell cycle phase in which cells were arrested (KYSE450 cells): G2/M phase | blank-corrected absorbance 490 nm relative to control (fraction) (KYSE410TR cells; concentration 4): 0.5568 | inhibition (1 minus fraction of control) (KYSE410TR cells; concentration 4): 0.4432 | blank-corrected absorbance 490 nm relative to control (fraction) (KYSE410TR cells; concentration 8): 0.3771 | inhibition (1 minus fraction of control) (KYSE410TR cells; concentration 8): 0.6229 | blank-corrected absorbance 490 nm relative to control (fraction) (KYSE410TR cells; concentration 16): 0.2345 | inhibition (1 minus fraction of control) (KYSE410TR cells; concentration 16): 0.7655 | IC50 (KYSE410TR cells; Homo sapiens, MTT, 48 h, taxol-resistant KYSE410TR, value in parentheses, read-out: IC50 48 h KYSE410TR (data in parentheses) (converted)): 5.3 µM
